In patent publication US20190000760A1, “NANOPARTICLE-AQUEOUS DISPERSION LIQUID OF GLYCOSPHINGOLIPID” (REGiMMUNE Corporation, priority 2015, published 2019):

Assay: Average particle size and particle distribution by dynamic light scattering (Zetasizer Nano ZS)
Type: physicochemical
Settings: for average particle size / particle distribution: DMSO as organic solvent
Protocol: (§1) KRN7000 was weighed in a test tube, 99.5% ethanol was added to adjust the concentration to 4 mg/mL, and the mixture was then heated to 76° C. to completely dissolve the KRN7000, so that a glycosphingolipid solution was obtained (the same applies for RCAI-56 or RCAI-61). On the other hand, inulin was weighed in a test tube, sterilized distilled water was added to adjust the concentration to 35 mg/mL, and the inulin was then completely dissolved to obtain an inulin solution. 50 μL of the glycosphingolipid solution was transferred to an additionally provided test tube, 950 μL of the inulin solution was added thereto, and quickly mixed by vortex, the mixture was left standing overnight at room temperature, and an equal amount of pure water was then added to reduce the concentration to ½. For the obtained dispersion solution, the average particle size and particle distribution were measured by a dynamic light scattering method (Zetasizer Nano ZS, Malvern). […] The final components of the glycosphingolipid hydrophilic protective colloidal solution obtained by this method, and the concentrations thereof are as follows: 0.1 mg/mL of glycosphingolipid, 17.5 mg/mL of inulin and 2.5% of ethanol.
as §1, with “pullulan” for “inulin”, “10” for “35”, “a pullulan” for “an inulin”, “glycosphingolipid” for “glycosphingolipid hydrophilic”, “5.0” for “17.5”
as §1, with “HPMC” for “inulin”, “1” for “35”, “a HPMC” for “an inulin”, “glycosphingolipid” for “glycosphingolipid hydrophilic”, “0.5” for “17.5”
Preparation of a hydrophobic colloidal solution of a glycosphingolipid using DMSO as an organic solvent was examined. KRN7000 was weighed in a test tube, DMSO was added to adjust the concentration to 2 mg/mL, and the mixture was heated to 85° C. to completely dissolve the KRN7000, so that a glycosphingolipid solution was obtained. […]

[1] = inulin, 0.4 mg/mL glycosphingolipid, 28 mg/mL inulin, 20% DMSO
[2] = Protective colloid: HPMC, 0.1 mg/mL glycosphingolipid, 0.5 mg/mL HPMC, 2.5% ethanol
[3] = Protective colloid: Inulin, 0.1 mg/mL glycosphingolipid, 17.5 mg/mL inulin, 2.5% ethanol
[4] = Protective colloid: None, glycosphingolipid dissolved in ethanol, mixed with water
[5] = Protective colloid: Pullulan, 0.1 mg/mL glycosphingolipid, 5.0 mg/mL pullulan, 2.5% ethanol

average particle size [1] [nm] | particle distribution [1] | average particle size (protective colloid not used) | particle distribution (protective colloid not used) | Average particle size (diameter, nm) [2] [nm] | Particle size distribution [2] | Average particle size (diameter, nm) [3] [nm] | Particle size distribution [3] | Average particle size (diameter, nm) [4] [nm] | Particle size distribution [4] | Average particle size (diameter, nm) [5] [nm] | Particle size distribution [5] | SMILES
345.5 | monodispersed particles | large average particle size | polydispersed particles | 192 | Monodispersed | 156 | Monodispersed | 1536 | Polydispersed | 149 | Monodispersed | CCCCCCCCCCCCCCCCCCCCCCCCCC(=O)N[C@@H](CO[C@H]1O[C@H](CO)[C@H](O)[C@H](O)[C@H]1O)[C@H](O)[C@H](O)CCCCCCCCCCCCCC [KRN7000, (2S,3S,4R)-1-O-(α-D-galactosyl)-N-hexacosanoyl-2-amino-1,3,4-octadecanetriol]
 |  |  |  | 380 | Monodispersed | 169 | Monodispersed | 435 | Polydispersed | 174 | Monodispersed | CCCCCCCCCCCCCCCCCCCCCCCCCC(=O)N[C@@H](CO[C@H]1CC(CO)[C@H](O)[C@H](O)C1O)[C@H](O)[C@H](O)CCCCCCCCCCCCCC (stereo partly shown) [RCAI-56]
 |  |  |  | 191 | Monodispersed | 298 | Monodispersed | 683 | Polydispersed | 151 | Monodispersed | CCCCCCCCCCCCCCCCCCCCCCCCCC(=O)N[C@@H](CO[C@H]1O[C@H](COC)[C@H](O)[C@H](O)[C@H]1O)[C@H](O)[C@H](O)CCCCCCCCCCCCCC [RCAI-61]
